Results: PubChem BioAssay (NCI)
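Assay format: 96-well plates, 48-hour exposure. The concentration for full growth arrest is given as TGI.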

How the values were obtained:
Test in all cases: NCI-60 cell line screen, 48 h
SF-295 CNS = tested on: SF-295 CNS
IGROV1 ovarian = tested on: IGROV1 ovarian
HCC-2998 colon = tested on: HCC-2998 colon
MDA-N = tested on: MDA-N
SR leukemia = tested on: SR leukemia
HCT-15 colon = tested on: HCT-15 colon
MCF7 breast = tested on: MCF7 breast
RXF 393 renal = tested on: RXF 393 renal
NCI/ADR-RES ovarian = tested on: NCI/ADR-RES ovarian
NCI-H23 lung = tested on: NCI-H23 lung
SK-OV-3 ovarian = tested on: SK-OV-3 ovarian
NCI-H226 lung = tested on: NCI-H226 lung
HT29 colon = tested on: HT29 colon
BT-549 breast = tested on: BT-549 breast
CCRF-CEM leukemia = tested on: CCRF-CEM leukemia
HCT-116 colon = tested on: HCT-116 colon
SF-268 CNS = tested on: SF-268 CNS
MOLT-4 leukemia = tested on: MOLT-4 leukemia
RPMI-8226 leukemia = tested on: RPMI-8226 leukemia
SNB-19 CNS = tested on: SNB-19 CNS
SW-620 colon = tested on: SW-620 colon
DU-145 prostate = tested on: DU-145 prostate
SN12C renal = tested on: SN12C renal
SK-MEL-2 melanoma = tested on: SK-MEL-2 melanoma
NCI-H460 lung = tested on: NCI-H460 lung
COLO 205 colon = tested on: COLO 205 colon
NCI-H522 lung = tested on: NCI-H522 lung
ACHN renal = tested on: ACHN renal
LOX IMVI melanoma = tested on: LOX IMVI melanoma
SK-MEL-5 melanoma = tested on: SK-MEL-5 melanoma
A498 renal = tested on: A498 renal
U251 CNS = tested on: U251 CNS
OVCAR-5 ovarian = tested on: OVCAR-5 ovarian
K-562 leukemia = tested on: K-562 leukemia
TK-10 renal = tested on: TK-10 renal
HOP-92 NSCLC = tested on: HOP-92 NSCLC
OVCAR-3 ovarian = tested on: OVCAR-3 ovarian
HS 578T breast = tested on: HS 578T breast
EKVX NSCLC = tested on: EKVX NSCLC
UACC-62 melanoma = tested on: UACC-62 melanoma
MDA-MB-435 = tested on: MDA-MB-435
T-47D breast = tested on: T-47D breast
SF-539 CNS = tested on: SF-539 CNS
UO-31 renal = tested on: UO-31 renal
A549 NSCLC = tested on: A549 NSCLC
CAKI-1 renal = tested on: CAKI-1 renal
OVCAR-8 ovarian = tested on: OVCAR-8 ovarian
KM12 colon = tested on: KM12 colon
M14 melanoma = tested on: M14 melanoma
UACC-257 melanoma = tested on: UACC-257 melanoma
MDA-MB-231 breast = tested on: MDA-MB-231 breast
MALME-3M melanoma = tested on: MALME-3M melanoma
PC-3 prostate = tested on: PC-3 prostate
786-0 renal = tested on: 786-0 renal
OVCAR-4 ovarian = tested on: OVCAR-4 ovarian
SNB-75 CNS = tested on: SNB-75 CNS
HOP-62 NSCLC = tested on: HOP-62 NSCLC
SK-MEL-28 melanoma = tested on: SK-MEL-28 melanoma

## CC1=CC(=O)N(n2c(Cc3ccc(Cl)cc3)n[nH]c2=O)C1=O
SF-295 CNS
  TGI: > 100 µM
IGROV1 ovarian
  TGI: > 100 µM
HCC-2998 colon
  TGI: > 100 µM
MDA-N
  TGI: > 100 µM
SR leukemia
  TGI: 38.7 µM
HCT-15 colon
  TGI: > 100 µM
MCF7 breast
  TGI: > 100 µM
RXF 393 renal
  TGI: 53.1 µM
NCI/ADR-RES ovarian
  TGI: > 100 µM
NCI-H23 lung
  TGI: > 100 µM
SK-OV-3 ovarian
  TGI: > 100 µM
NCI-H226 lung
  TGI: > 100 µM
HT29 colon
  TGI: 55.3 µM
BT-549 breast
  TGI: > 100 µM
CCRF-CEM leukemia
  TGI: 29.3 µM
HCT-116 colon
  TGI: > 100 µM
SF-268 CNS
  TGI: > 100 µM
MOLT-4 leukemia
  TGI: 47.4 µM
RPMI-8226 leukemia
  TGI: 53.2 µM
SNB-19 CNS
  TGI: > 100 µM
SW-620 colon
  TGI: > 100 µM
DU-145 prostate
  TGI: > 100 µM
SN12C renal
  TGI: > 100 µM
SK-MEL-2 melanoma
  TGI: > 100 µM
NCI-H460 lung
  TGI: > 100 µM
COLO 205 colon
  TGI: > 100 µM
NCI-H522 lung
  TGI: 35.7 µM
ACHN renal
  TGI: > 100 µM
LOX IMVI melanoma
  TGI: > 100 µM
SK-MEL-5 melanoma
  TGI: > 100 µM
A498 renal
  TGI: > 100 µM
U251 CNS
  TGI: > 100 µM
OVCAR-5 ovarian
  TGI: > 100 µM
K-562 leukemia
  TGI: 72.2 µM
TK-10 renal
  TGI: > 100 µM
HOP-92 NSCLC
  TGI: 67.7 µM
OVCAR-3 ovarian
  TGI: > 100 µM
HS 578T breast
  TGI: > 100 µM
EKVX NSCLC
  TGI: > 100 µM
UACC-62 melanoma
  TGI: 45.4 µM
MDA-MB-435
  TGI: > 100 µM
T-47D breast
  TGI: > 100 µM
SF-539 CNS
  TGI: > 100 µM
UO-31 renal
  TGI: > 100 µM
A549 NSCLC
  TGI: > 100 µM
CAKI-1 renal
  TGI: > 100 µM
OVCAR-8 ovarian
  TGI: > 100 µM
KM12 colon
  TGI: > 100 µM
M14 melanoma
  TGI: > 100 µM
UACC-257 melanoma
  TGI: > 100 µM
MDA-MB-231 breast
  TGI: > 100 µM
MALME-3M melanoma
  TGI: > 100 µM
PC-3 prostate
  TGI: > 100 µM
786-0 renal
  TGI: > 100 µM
OVCAR-4 ovarian
  TGI: > 100 µM

## O=C1C=C(c2ccccc2)O/C1=C\C(=O)c1ccc(Cl)cc1
IGROV1 ovarian
  TGI: 35.8 µM
HCC-2998 colon
  TGI: 87.5 µM
MDA-N
  TGI: 38.7 µM
SR leukemia
  TGI: > 100 µM
HCT-15 colon
  TGI: 35.1 µM
MCF7 breast
  TGI: 34.9 µM
RXF 393 renal
  TGI: 32.6 µM
NCI/ADR-RES ovarian
  TGI: 52.4 µM
NCI-H23 lung
  TGI: 65.8 µM
SK-OV-3 ovarian
  TGI: > 100 µM
NCI-H226 lung
  TGI: 44.5 µM
HT29 colon
  TGI: 13.1 µM
BT-549 breast
  TGI: 25.3 µM
HCT-116 colon
  TGI: 31.2 µM
SF-268 CNS
  TGI: 52.2 µM
SNB-75 CNS
  TGI: 18.2 µM
MOLT-4 leukemia
  TGI: > 100 µM
RPMI-8226 leukemia
  TGI: > 100 µM
SNB-19 CNS
  TGI: > 100 µM
SW-620 colon
  TGI: 10.1 µM
HOP-62 NSCLC
  TGI: > 100 µM
DU-145 prostate
  TGI: > 100 µM
SN12C renal
  TGI: 11.5 µM
NCI-H460 lung
  TGI: > 100 µM
COLO 205 colon
  TGI: 30.8 µM
NCI-H522 lung
  TGI: 44.2 µM
ACHN renal
  TGI: 29.7 µM
LOX IMVI melanoma
  TGI: 30.1 µM
SK-MEL-5 melanoma
  TGI: 91.9 µM
A498 renal
  TGI: > 100 µM
U251 CNS
  TGI: 29.9 µM
OVCAR-5 ovarian
  TGI: 88 µM
K-562 leukemia
  TGI: 73 µM
TK-10 renal
  TGI: 35 µM
HOP-92 NSCLC
  TGI: 50 µM
OVCAR-3 ovarian
  TGI: 47.1 µM
SK-MEL-28 melanoma
  TGI: 38.5 µM
HS 578T breast
  TGI: 61.5 µM
EKVX NSCLC
  TGI: > 100 µM
UACC-62 melanoma
  TGI: 30.4 µM
MDA-MB-435
  TGI: 29.8 µM
T-47D breast
  TGI: 74.1 µM
SF-539 CNS
  TGI: > 100 µM
UO-31 renal
  TGI: 35.8 µM
CAKI-1 renal
  TGI: 32.5 µM
OVCAR-8 ovarian
  TGI: 83.4 µM
KM12 colon
  TGI: 80.5 µM
M14 melanoma
  TGI: 41.5 µM
UACC-257 melanoma
  TGI: 37.1 µM
MDA-MB-231 breast
  TGI: 32.7 µM
MALME-3M melanoma
  TGI: 29.4 µM
PC-3 prostate
  TGI: 30.3 µM
786-0 renal
  TGI: 28.8 µM
OVCAR-4 ovarian
  TGI: 58.2 µM
